# Reference: patent US20080108694A1, “Novel Macrocycles and Uses Thereof” (priority 2003, published 2008)
# Like-named read-outs stand apart in the source and are kept apart here.
# What was measured:
# [1] = test system: MCF7; assay: Alamar blue proliferation assay, growth inhibition of MCF7 breast cancer cells; type: cell-based, human; conditions: for IC50: Homo sapiens
# Excerpt: Biological Evaluation of Cycloproparadicicol Analogues. As discussed earlier, it appears that the inhibition of Hsp90 induces the proteasomal degradation of various oncogenic proteins, thereby leading to inhibition of tumor cell growth. We hoped to evaluate our synthetic analogues for their growth inhibition activity against MCF breast cancer cells. […] Further modifications of 27α, however, decreased its potency.
# Cell Culture. The human cancer line MCF7 was obtained from American Type Culture Collection (Manassas, Va., USA) and maintained in 1:1 mixture of DME:F12 supplemented with 10% heat-inactivated fetal bovine serum, 2 mM glutamine, 50 units/ml of penicillin and streptomycin, and incubated in a humidified 5% CO2/air atmosphere at 37° C. For the Alamar blue proliferation assay, 2×10^3 cells were plated in 96-well plates. Twenty four hours later, cells were treated with the compound for 72 or 120 hours. On day 3 or 5, Alamar Blue viability assay (AccuMe Westlake, Ohio) was performed as described elsewhere (White, M. J.; DiCaprio, M. J Greenberg, D. A. J. Neurosci. Methods 1996, 70, 195-200; incorporated herein by reference). IC50s were calculated as the doses of the compound required to inhibit cell growth by 50% of control values.
# [2] = test system: HER2; assay: Her2 degradation in drug-treated MCF-7 cells by immunoblotting; type: cell-based, human; conditions: for concentration at which Her2 is degraded: P85 control
# Experimental: To confirm that the cytotoxicity was indeed due to the inhibition of Hsp90, we set out to investigate the degradation of Her2, one of the most sensitive client proteins of this chaperone. The expression levels of Her2 of drug-treated MCF-7 cells were analyzed using immunoblotting (FIG. 31). P85, used as a control, is not a client protein of Hsp90. As expected, the growth inhibition activities of the synthetic active analogues are reflected in their capacity to degrade Her2. […] Nonchlorinated difluoro compound 38 degraded Her2 at 1 μM, and its chlorinated counterpart 31, at 10 μM.
# Immunoblotting. For immunoblotting, cells in culture were washed and harvested in PBS, and then lysed in NP-40 buffer (50 mMTris, pH 7.5, 1% Nonidet P-40, 150 mM NaCl, 2.5 mM Na3VO4, 10 mM phenylmethylsulfonyl fluoride, and 10 μM each leupeptin, aprotinin, and soybean trypsin inhibitor). Cell lysates were cleared by centrifugation at 14,000×g for 10 minutes, and supernatants were collected as the experimental samples. Protein concentrations were determined using BCA reagent (Pierce Chemical Co., Rockford, Ill.). Lysates were added to sample buffer [0.3125 M Tris-HCl (pH 6.8), 10% SDS, 50% glycerol, and 77.5 mg/ml DTT], and equal amounts of protein were resolved by 7% SDS-PAGE and transferred to nitrocellulose membranes. Blots were blocked in 5% nonfat milk in Tris-buffered saline [0.1% Tween 20, 10 mM Tris (pH 7.4), and 150 mM NaCl] and subsequently probed with antibody (HER2 rabbit polyclonal IgG, Santa Cruz Biotechnology, Santa Cruz, Calif.; and PI3 kinase P85, Upstate Cell Signaling Solutions, Lake Placid, N.Y.). After incubation with horseradish peroxidase-conjugated secondary antibodies, proteins were visualized by chemiluminescence using the ECL detection reagents (Amersham Corp., Piscataway, N.J.). To prepare lysate from xenograft tumors, tumor tissue was homogenized in 2% SDS lysis buffer for 30 s then processed as above.
# [3] = rcm bond
# [4] = test system: Hsp90; conditions: cited from earlier work
# [5] = test system: breast cancer cell with wild type Rb; assay: Inhibition of breast cancer cell with wild type Rb; type: cell-based, human
# Experimental: (§1) Growth assays were performed by seeding 10000 cells (MCF7, BT474 or N417) per well in 6-welldishes and incubating for 24 h before drug treatment. Drugs or vehicle were administered as outlined for each experiment, and cells were incubated for the time periods depicted and then the number quantified by a Coulter counter.
# [6] = test system: small cell lung cancer cell line with defective Rb function; assay: Inhibition of small cell lung cancer cell line with defective Rb function; type: cell-based, human
# Experimental: as §1
# [7] = test system: HER2; assay: Reduction of HER2 in MCF7 and BT474 cells (protein assay, gels); type: cell-based, human; conditions: tested at 0.5 μM through 5 μM
# Experimental: As depicted in FIGS. 17 and 18, four analogues have been tested for their ability to reduce HER2 in MCF7 and BT474 cells. […] Furthermore, while the vinyl epoxide, a reactive moiety, may be responsible for undesired cytotoxicity, the cyclopropane is far more stabile to non-productive cellular nucleophiles.
# The human cancer cell lines MCF7, BT474 and N417 were obtained from the American Type Culture Collection (Manassas, Va., USA) and maintained in a 1:1 mixture of DME:F12 supplemented with 2 mM glutamine, 50 U/mL penicillin, 50 U/mL streptomycin and 5% heat inactivated fetal bovie serum (Gemini Bioproducts) and incubated at 37° C. in 5% CO2.
# Cells were grown to 60-70% confluence and exposed to drugs or DMSO vehicle for the indicated time periods. Lysates were prepared using 50 mM Tris pH 7.4, 2% SDS and 10% glycerol lysis buffer. Protein concentration was determined using the BCA kit (Pierce Chemical Co.) according to the manufacturer's instructions. Clarified protein lysates (20-50 μg) were electrophoretically resolved on denaturing SDS-PAGE, transferred to nitrocellulose and probed with the following primary antibodies: anti-Her2 (C-18).
# [8] = cited from earlier work
# [9] = test system: MCF7 cells; assay: Growth of MCF7 cells (HER2 overexpressed, Rb positive) treated with radicicol and analogues; type: cell-based, human
# [10] = test system: P. falciparum; conditions: cited from earlier work
# [11] = test system: KB cells; conditions: cited from earlier work
# [12] = MCF7, MCF breast cancer cells, 72 h treatment, read-out: IC50 value
# [13] = MCF7 cells, 72 h treatment, read-out: IC50 (pM) Values of Cycloproparadicicol Analogues and Aigialomycin D
# [14] = MCF breast cancer cells, 72 h treatment
molecule,measurement,setting,value
C[C@@H]1C[C@H]2C[C@@H]2/C=C\C=C\[C@H](O)Cc2cc(O)cc(O)c2C(=O)O1 [27α],IC50,[1]; [12],150000 pM
same,IC50,[1]; [13],150000 pM
same,concentration at which Her2 is degraded,[2],0.3 µM
C[C@@H]1C[C@H]2C[C@@H]2\C=C/C=C/C(=N/O)Cc2c(Cl)c(O)cc(O)c2C(=O)O1 [(E)-30],IC50,[1]; [13],282000 pM
same,capacity to degrade Her2,[2],less effective
"C[C@@H]1C[C@@H]2[C@@H](/C=C\C=C\C(=O)Cc3c(Cl)c(O)cc(O)c3C(=O)O1)C2(F)F [compound 31, Difluorocycloproparadicicol]",IC50,[1]; [13],1e+07 pM
same,concentration at which Her2 is degraded,[2],10 µM
CC(C)(C)[Si](C)(C)OC1/C=C/C=CCCCCOC(=O)[C]23[Co]4[Co]2[C]43C1.[C-]#[O+].[C-]#[O+].[C-]#[O+].[C-]#[O+].[C-]#[O+].[C-]#[O+] (centres unmarked),"ring closure, yield of all isomers",[3]; from C=CCCCCOC(=O)[C]12[Co]3[Co]1[C]32CC(/C=C/C=C/C)O[Si](C)(C)C(C)(C)C.[C-]#[O+].[C-]#[O+].[C-]#[O+].[C-]#[O+].[C-]#[O+].[C-]#[O+],71%
"C[C@@H]1C[C@@H]2[C@@H](/C=C\C=C\C(=O)Cc3cc(O)cc(O)c3C(=O)O1)C2(F)F [compound 38, Difluorocyclopropamonocilin]",IC50,[1]; [13],3e+06 pM
same,concentration at which Her2 is degraded,[2],1 µM
"C[C@@H]1C[C@H]2C[C@@H]2/C=C\C=C\C(=O)Cc2c(Cl)c(O)cc(O)c2C(=O)O1 [compound 2, Cycloproparadicicol]",binds to Hsp90 at,[4],ca. 160 nM
same,inhibition of breast cancer cell with wild type Rb,[5],potent inhibitors
same,IC50,[1]; [13],54000 pM
same,growth inhibition activity,[1]; [14],most potent of the new compounds
same,inhibition of small cell lung cancer cell line with defective Rb function,[6],potent inhibitors
same,potency relative to 17-AGG in small cell lung cancer cell line with defective Rb function,[6],much more potent than 17-AGG
same,effectiveness in reducing HER2 relative to radicicol,[7],"at least as effective, if not better than radicicol"
same,concentration at which Her2 is degraded,[2],0.3 µM
"C[C@@H]1C[C@H]2O[C@@H]2/C=C\C=C\C(=O)Cc2c(Cl)c(O)cc(O)c2C(=O)O1 [radicicol, reference compound]",inhibition of breast cancer cell with wild type Rb,[5],potent inhibitors
same,activity in in vivo (animal) models,[8],ineffective
same,inhibition of small cell lung cancer cell line with defective Rb function,[6],potent inhibitors
same,efficacy in side by side experiment with radicicol,[9],demonstrated efficacy
C[C@@H]1C[C@H]2C[C@@H]2C=C/C=C/C(O[Si](C)(C)C(C)(C)C)CC#CC(=O)N1 (some centres unmarked),"ring closure, yield of all isomers","[3]; from C=C[C@H]1C[C@@H]1C[C@@H](C)NC(=O)C#CCC(/C=C/C=C/C)O[Si](C)(C)C(C)(C)C.[C-]#[O+].[C-]#[O+].[C-]#[O+].[C-]#[O+].[C-]#[O+].[C-]#[O+].[Co].[Co], 2 steps",60%
C[C@@H]1C[C@H]2C[C@@H]2/C=C\C=C\[C@H](O)Cc2c(Cl)c(O)cc(O)c2C(=O)O1 [28α],IC50,[1]; [12],390000 pM
same,IC50,[1]; [13],390000 pM
"17-alkylaminogeldanamycin [17-AGG, reference compound]",potency in cells with wild type Rb versus cells with defective Rb function,[6],much more potent against cells with wild type Rb than in cells with defective Rb function
C[C@@H]1C[C@H]2C[C@@H]2/C=C\C=C\[C@@H](O)Cc2cc(O)cc(O)c2C(=O)O1 [27β],IC50,[1]; [13],> 500000 pM
same,growth inhibition activity,[1]; [14],inactive
C[C@@H]1C[C@H]2C[C@@H]2C=C/C=C/C(O[Si](C)(C)C(C)(C)C)CC#CC(=O)O1 (some centres unmarked),"ring closure, yield of all isomers","[3]; from C=C[C@H]1C[C@@H]1C[C@@H](C)OC(=O)[C]12[Co]3[Co]1[C]32CC(/C=C/C=C/C)O[Si](C)(C)C(C)(C)C.[C-]#[O+].[C-]#[O+].[C-]#[O+].[C-]#[O+].[C-]#[O+].[C-]#[O+], 2 steps",51%
CO[C@H]1/C=C/C=C\[C@H]2C[C@@H]2C[C@@H](C)OC(=O)c2c(O)cc(O)cc2C1 [29α],IC50,[1]; [13],> 1e+07 pM
same,growth inhibition activity,[1]; [14],completely inactive
"C[C@H]1C/C=C/[C@@H](O)[C@@H](O)CC/C=C/c2cc(O)cc(O)c2C(=O)O1 [compound 46, Aigialomycin D]",IC50,"[1]; MCF7, 72 h, read-out: IC50 (pM) Values of Cycloproparadicicol Analogues and Aigialomycin D",> 1e+07 pM
same,growth inhibition activity,[1]; [14],significantly less active than the cycloproparadicicol derivatives
same,IC50 against P. falciparum (antimalarial activity),[10],6.6 µg/mL
same,concentration at which Her2 is degraded,[2],> 10 µM
same,IC50 against KB cells (antitumor activity),[11],3.0 µg/mL
C[C@@H]1C[C@H]2C[C@@H]2\C=C/C=C/C(=N\O)Cc2c(Cl)c(O)cc(O)c2C(=O)O1 [(Z)-30],IC50,[1]; [13],98000 pM
same,potency relative to the corresponding (E)-isomer,"[1]; MCF breast cancer cells, 72 h",3 times
same,concentration at which Her2 is degraded,[2],0.3 µM
C[C@H]1CC=C[C@H]2OC(C)(C)O[C@H]2CCC(O[Si](C)(C)C(C)(C)C)C[C]23[Co]4[Co]2[C]43C(=O)O1.[C-]#[O+].[C-]#[O+].[C-]#[O+].[C-]#[O+].[C-]#[O+].[C-]#[O+] (some centres unmarked),"ring closure, yield of all isomers",[3]; from C=CC[C@H](C)OC(=O)[C]12[Co]3[Co]1[C]32CC(CC[C@@H]1OC(C)(C)O[C@@H]1C=C)O[Si](C)(C)C(C)(C)C.[C-]#[O+].[C-]#[O+].[C-]#[O+].[C-]#[O+].[C-]#[O+].[C-]#[O+],80%
C[C@@H]1C[C@H]2C[C@@H]2C=C/C=C/C(O[Si](C)(C)C(C)(C)C)C[C]23[Co]4[Co]2[C]43C(=O)O1.[C-]#[O+].[C-]#[O+].[C-]#[O+].[C-]#[O+].[C-]#[O+].[C-]#[O+] (some centres unmarked),"ring closure, yield of all isomers",[3]; from C=C[C@H]1C[C@@H]1C[C@@H](C)OC(=O)[C]12[Co]3[Co]1[C]32CC(/C=C/C=C/C)O[Si](C)(C)C(C)(C)C.[C-]#[O+].[C-]#[O+].[C-]#[O+].[C-]#[O+].[C-]#[O+].[C-]#[O+],57%
